This assay deals with T1, Synthetic HIV-1 proteinase (Human immunodeficiency virus type 1 group M subtype B, UniProt P03369).
T1 construct: Synthetic HIV-1 proteinase; made in house; host or cells: chemical synthesis (no expression host); gift of Dr. Stephen Kent, The Scripps Research Institute
In words: HPLC assay of HIV-1 PR inhibition. The conditions noted are these: HIV substrate IV, pH 6.2, 25° C. It is filed as biochemical. The protocol:
Typical reactions were carried out at room temperature (25° C.) in 150 μl total volumes of 100 mM MES buffer, pH 6.2, containing 1 mM ethylenediaminetetra-acetic acid (EDTA) and 2 mM dithiothreitol (DTT) plus 0.1 percent (v/v) Triton X-100.
Synthetic HIV-1 proteinase [0.5 μg, obtained from Dr. Stephen Kent of The Scripps Research Institute; see Cell, 54:363-368 (July 29, 1988)] was first incubated in buffer with (or without) various concentrations of "inhibitor(s)" for 30 minutes at 25° C. The proteinase reaction was then initiated by the addition of HIV substrate IV (Bachem Bioscience Inc.) at fixed concentrations. HIV Substrate IV has the sequence
Lys-Ala-Arg-Val-Nle-p-NO2 Phe-Glu-Ala-Nle-NH2 (SEQ ID NO: 32).
At three appropriate times (normally 15, 30 and 45 minutes) the hydrolysis was stopped by adding a 40 μl aliquot from the reaction to 40 μl of a prepared quench solution. The quench solution was 1:4 acetonitrile:water (3 percent trifluoroacetic acid; TFA) and contained 150 μM m-toluic acid which served as an HPLC standard. […] Reaction progress was monitored by following the increasing absorbance (peak height) of the substrate IV cleavage product detected at […].

The term Ki denotes a dissociation constant, usually derived from enzyme kinetics or from competition with a known ligand.

*1 amine or outer side, *2 acyl side, *3 side chain or, on linkers, in order; H or OH if unused. Where a SMILES comes first, the peptide text is derived from it. [ ]: non-standard residue; d: D form. X1 = O=C([C@@H]1CCCN1CP(=O)(O)C(Cc1ccccc1)N[*:1])[*:2]

For `CC[C@H](C)[C@H](NC(=O)[C@@H]1CCCN1CP(=O)(O)C(Cc1ccccc1)NC(=O)[C@H](CC(N)=O)NC(=O)[C@H](CC(C)C)NC(=O)[C@H](CO)NC(C)=O)C(=O)N[C@H](C(=O)OC)C(C)C` (stereo partly drawn) [Compound 6, CH3 C(O)-Ser-Leu-Asn-Phe.psi.[PO2^- CH2 NH^+ ]Pro-Ile-Val-OCH3] (Ac-SLN[X1]IV-OMe), the Ki by setting is: (one stereoisomer of Compound 6) roughly 600 µM; (the other (more active) isomer of Compound 6) roughly 0.01 µM.

The values are drawn from patent US5563121A, “Peptide linkage unit” (priority 1994, dated 1996).
